The values that follow are results of earlier work, collected in patent publication US20260091056A1, “COMPOSITIONS FOR CONTROLLING ODOR AND ITCH AND METHODS OF AND DEVICES FOR ADMINISTERING SAME” (Vireo Systems, Inc., priority 2020, published 2026).

For the series the following is noted: at 25° C.

With boric acid, the pKa value is around 9.14.
